Data set [1] relates to patients with addiction, chronic anxiety or sleep disorders. Description: continuous subcutaneous infusion of flumazenil in patients (case study and observations). It counts as in vivo, human. The procedure: A solution of flumazenil in saline solution was prepared by dissolving 16 mg of flumazenil in 30 mL of saline and adjusting the pH to between 6.5 to 7.0 with a phosphate buffer, solution (pH 5.0). The final concentration of flumazenil in saline is 0.53 mg/mL.
A solution of flumazenil in saline was prepared as set out above. That is, a portion of 12 to 16 mg flumazenil in 30 mL of saline was prepared for the subcutaneous administration via a spring driven 30 mL pump. The pump used was a portable infusion Springfusor pump (O'Neil Balloon Infuser, ID: SBI-100; Go Medical Industries). The delivery rate of the flumazenil was in the order of 40 to 1000 μg/h.
A Springfusor pump connected to tubing and a butterfly cannula was set up, wherein the pump was loaded with 30 mL of flumazenil solution (0.53 mg/mL). The butterfly cannula was inserted into the patient's abdomen using standard techniques and the pump set to delivery flumazenil at a rate of 166 μg/h. After the initial four day (96 hour) administration, the pump was reloaded with a further 30 mL of flumazenil solution (0.53 mgmL) and delivery continued for a further four days (96 hours). The subcutaneous infusion continued for a total of three weeks.

Data set [2] has as its system patient suffering from chronic anxiety. Nature of the data set: patient controlled subcutaneous pump, single dose, heart rate and anxiety. It counts as in vivo, human. The procedure: The heart rate and the body movement of the patient were recorded using standard equipment.
Data set [3] relates to patients with cravings for smoking. The note with it: patient controlled delivery, agent alone.
Text: In one experiment, flumazenil and naltrexone were mixed to capture the benefits of mixing a benzodiazepine antagonist and an opiate antagonist to be given in a pulsative manner when cravings were observed.
For data set [4] the following is noted: cited from earlier work.
The conditions of data set [5]: cited from earlier work. The source holds these as a separate data set.
Data set [6] concerns subjects with panic disorder, social anxiety or alcohol dependence. The following applies: cited from earlier work.
The subject of data set [7] is patients with addiction, chronic anxiety or sleep disorders. Nature of the data set: continuous subcutaneous infusion of flumazenil in patients (case study and observations). It counts as in vivo, human. The following applies: intravenous infusions below 80 μg/h.
The mark [8] stands for this setting: continuous subcutaneous infusion.

“Also recorded” adds a separate entry of the source.

`CCOC(=O)c1ncn2c1CN(C)C(=O)c1cc(F)ccc1-2` [flumazenil]: the panic attacks result in data set [1] (after full treatment with subcutaneous infusion, one patient) is on record as “gone”. For the same molecule, the anticonvulsant effect entry in data set [1] (constant subcutaneous delivery of 166 μg/h) is recorded as “appears to be effective as an anticonvulsant”; in data set [7], “failed to stop epileptic convulsions”. The sleeping pulse rates entry in data set [1] (continuous infusion with or without opiate and cannabanoid antagonists, chronic anxiety disorders) is on record as “reductions in sleeping pulse rates”. In addition, in data set [1] (setting [8]), the “anxiety levels / anxiety disorders” value is given as “reduced; also recorded: marked improvements”. Besides, in data set [1] (setting [8]), the cognitive function entry was “improved cognitive functions; also recorded: appeared to improve daily”. Also, the “dependency on anti-psychotic drugs” value in data set [1] (continuous subcutaneous infusion 166 μg/h, one patient) is “decreased”. In data set [1] (continuous subcutaneous infusion, 166 μg/h, greater than four days), the “sleep patterns / chronic sleep disorders” value is “better sleep patterns; also recorded: gradually improved; also recorded: good response rates”. Moreover, the “cravings for addictive substances (alcohol, smoking, amphetamines, opiates, benzodiazepines)” value in data set [1] (continuous subcutaneous infusion, during and after infusion) is “decreased and eventually were considered negligible; also recorded: reduced; also recorded: reduction in craving for alcohol”. For the same molecule, in data set [2] (60 minutes after single 1 mg subcutaneous dose, from close to 120 bpm before), the pulse rate came out at 80 bpm. Further, the anxiety result in data set [2] (single 1 mg dose via patient controlled subcutaneous pump) is “reduction in anxiety”. Further, in data set [3], the “symptoms of craving and anxiety” value is “decrease symptoms of craving and anxiety”. Moreover, the “solubility in acidic aqueous solutions” value in data set [4] (acidic aqueous solutions) was “slightly soluble”. Besides, the solubility in water result in data set [4] (water) is “insoluble in water”. Moreover, the half life entry in data set [5] (in vivo) is “very short half life”. For the same molecule, the oral bioavailability entry in data set [5] (oral) is recorded as “low oral bioavailability”. Further, in data set [6] (bolus infusion of 2 mg in 10 minutes, subjects with panic disorder), the panic induction result is “can act as a specific panicogen”. Moreover, in data set [6] (intravenous infusion), the “effect on social anxiety or alcohol-dependent subjects” value was “no effect”.

These data come from US9283212B2, “Pharmaceutical preparation and delivery system” (PALMAYA PTY LTD, priority 2009, dated 2016).
